From ChEMBL document CHEMBL3045869, “Efficacy of fungicides with various modes of action in controlling the early stages of an Erysiphe necator-induced epidemic” (2010)
Active and inactive are the calls of the source. The rule behind the calls is not given here.

How the values were obtained:
Erysiphe necator [1] = experiment: Antifungal activity against Erysiphe necator biotype B assessed as number of spores at 1 g a.i./l applied 4 days post-inoculation measured after 14 days during cycle 1 by leaf-disk method (reference value: 35.9 x 10^3 cm'-2); type: functional
Erysiphe necator [2] = experiment: Antifungal activity against Erysiphe necator biotype B assessed as AUDPC at 1 g a.i./l applied 4 days post-inoculation measured after 14 days during cycle 1 by leaf-disk method (reference value: 695.6); type: functional
Erysiphe necator [3] = experiment: Antifungal activity against Erysiphe necator biotype B assessed as inhibition of disease severity at 1 g a.i./l applied 48 hr post-inoculation measured after 14 days by leaf-disk method relative to control; type: functional; design: scale not given: the % may be the effect or the level left
Erysiphe necator [4] = experiment: Antifungal activity against Erysiphe necator biotype B assessed as number of spores at 1 g a.i./l applied 13 days post-inoculation measured after 14 days during cycle 2 by leaf-disk method (reference value: 47.6 x 10^3 cm'-2); type: functional
Erysiphe necator [5] = experiment: Antifungal activity against Erysiphe necator biotype B assessed as number of spores at 1 g a.i./l applied 4 days post-inoculation measured after 14 days during cycle 2 by leaf-disk method (reference value: 44.4 x 10^3 cm'-2); type: functional
Erysiphe necator [6] = experiment: Antifungal activity against Erysiphe necator biotype B assessed as AUDPC at 1 g a.i./l applied 48 hr post-inoculation measured after 14 days by leaf-disk method (reference value: 394); type: functional
Erysiphe necator [7] = experiment: Antifungal activity against Erysiphe necator biotype B assessed as AUDPC at 1 g a.i./l applied 4 days post-inoculation measured after 14 days during cycle 2 by leaf-disk method (reference value: 844); type: functional
Erysiphe necator [8] = experiment: Antifungal activity against Erysiphe necator biotype B assessed as disease severity at 1 g a.i./l applied 4 days post-inoculation measured on day 13 during cycle 1 by leaf-disk method relative to untreated-control; type: functional
Erysiphe necator [9] = experiment: Antifungal activity against Erysiphe necator biotype B assessed as inhibition of mycelial growth at 1 g a.i./l applied 48 hr post-inoculation measured after 14 days by leaf-disk method; type: functional, organism-based
Erysiphe necator [10] = experiment: Antifungal activity against Erysiphe necator biotype B assessed as AUDPC at 1 g a.i./l applied 13 days post-inoculation measured after 14 days during cycle 2 by leaf-disk method (reference value: 654); type: functional
Erysiphe necator [11] = experiment: Antifungal activity against Erysiphe necator biotype B assessed as reduction in mycelial growth at 1 g a.i./l applied 13 days post-inoculation measured after 14 days during cycle 2 by leaf-disk method relative to untreated-control; type: functional, organism-based
Erysiphe necator [12] = experiment: Antifungal activity against Erysiphe necator biotype B assessed as inhibition of mycelial growth at 1 g a.i./l applied 4 days post-inoculation measured on after 14 days during cycle 2 by leaf-disk method relative to untreated-control; type: functional, organism-based
Erysiphe necator [13] = experiment: Antifungal activity against Erysiphe necator biotype B assessed as disease severity at 1 g a.i./l applied 13 days post-inoculation measured after 14 days during cycle 2 by leaf-disk method relative to untreated-control; type: functional
Erysiphe necator [14] = experiment: Antifungal activity against Erysiphe necator biotype B assessed as disease severity at 1 g a.i./l applied 13 days post-inoculation measured after 6 days during cycle 2 by leaf-disk method relative to untreated-control; type: functional
Erysiphe necator [15] = experiment: Antifungal activity against Erysiphe necator biotype B assessed as number of spores at 1 g a.i./l applied 48 hr post-inoculation measured after 14 days by leaf-disk method (reference value: 43.5 x 10^3 cm'-2); type: functional
Erysiphe necator [16] = experiment: Antifungal activity against Erysiphe necator biotype B assessed as disease severity at 1 g a.i./l applied 4 days post-inoculation measured immediately during cycle 1 by leaf-disk method relative to untreated-control; type: functional
Erysiphe necator [17] = experiment: Antifungal activity against Erysiphe necator biotype B assessed as disease severity at 0.5 g a.i./l applied 4 days post-inoculation measured after 14 days during cycle 1 by leaf-disk method relative to untreated-control; type: functional
Erysiphe necator [18] = experiment: Antifungal activity against Erysiphe necator biotype B assessed as AUDPC at 0.5 g a.i./l applied 13 days post-inoculation measured after 14 days during cycle 2 by leaf-disk method (reference value: 654); type: functional
Erysiphe necator [19] = experiment: Antifungal activity against Erysiphe necator biotype B assessed as reduction in disease severity at 0.5 g a.i./l applied 4 days post-inoculation measured after 11 days during cycle 2 by leaf-disk method relative to untreated-control; type: functional, organism-based
Erysiphe necator [20] = experiment: Antifungal activity against Erysiphe necator biotype B assessed as reduction in mycelial growth at 0.5 g a.i./l applied 4 days post-inoculation measured after 11 days during cycle 2 by leaf-disk method relative to untreated-control; type: functional, organism-based
Erysiphe necator [21] = experiment: Antifungal activity against Erysiphe necator biotype B assessed as reduction in disease severity at 0.5 g a.i./l applied 48 hr post-inoculation measured after 14 days by leaf-disk method relative to untreated-control; type: functional, organism-based
Erysiphe necator [22] = experiment: Antifungal activity against Erysiphe necator biotype B assessed as reduction in sporulation at 0.5 g a.i./l applied 4 days post-inoculation measured after 11 days during cycle 2 by leaf-disk method relative to untreated-control; type: functional, organism-based
Erysiphe necator [23] = experiment: Antifungal activity against Erysiphe necator biotype B assessed as AUDPC at 0.5 g a.i./l applied 4 days post-inoculation measured after 14 days during cycle 2 by leaf-disk method (reference value: 844); type: functional
Erysiphe necator [24] = experiment: Antifungal activity against Erysiphe necator biotype B assessed as disease severity at 0.5 g a.i./l applied 4 days post-inoculation measured immediately during cycle 1 by leaf-disk method relative to untreated-control; type: functional
Erysiphe necator [25] = experiment: Antifungal activity against Erysiphe necator biotype B assessed as AUDPC at 0.5 g a.i./l applied 48 hr post-inoculation measured after 14 days by leaf-disk method (reference value: 394); type: functional
Erysiphe necator [26] = experiment: Antifungal activity against Erysiphe necator biotype B assessed as number of spores at 0.5 g a.i./l applied 13 days post-inoculation measured after 14 days during cycle 2 by leaf-disk method (reference value: 47.6 x 10^3 cm'-2); type: functional
Erysiphe necator [27] = experiment: Antifungal activity against Erysiphe necator biotype B assessed as AUDPC at 0.5 g a.i./l applied 4 days post-inoculation measured after 14 days during cycle 1 by leaf-disk method (reference value: 695.6); type: functional
Erysiphe necator [28] = experiment: Antifungal activity against Erysiphe necator biotype B assessed as reduction in AUDPC at 0.5 g a.i./l applied 4 days post-inoculation measured after 11 days during cycle 2 by leaf-disk method relative to untreated-control; type: functional, organism-based
Erysiphe necator [29] = experiment: Antifungal activity against Erysiphe necator biotype B assessed as number of spores at 0.5 g a.i./l applied 4 days post-inoculation measured after 14 days during cycle 1 by leaf-disk method (reference value: 35.9 x 10^3 cm'-2); type: functional
Erysiphe necator [30] = experiment: Antifungal activity against Erysiphe necator biotype B assessed as disease severity at 0.5 g a.i./l applied 13 days post-inoculation measured after 6 days during cycle 2 by leaf-disk method relative to untreated-control; type: functional
Erysiphe necator [31] = experiment: Antifungal activity against Erysiphe necator biotype B assessed as number of spores at 0.5 g a.i./l applied 48 hr post-inoculation measured after 14 days by leaf-disk method (reference value: 43.5 x 10^3 cm'-2); type: functional
Erysiphe necator [32] = experiment: Antifungal activity against Erysiphe necator biotype B assessed as number of spores at 0.5 g a.i./l applied 4 days post-inoculation measured after 14 days during cycle 2 by leaf-disk method (reference value: 44.4 x 10^3 cm'-2); type: functional
Erysiphe necator [33] = experiment: Antifungal activity against Erysiphe necator biotype B assessed as disease severity at 0.5 g a.i./l applied 13 days post-inoculation measured after 14 days during cycle 2 by leaf-disk method relative to untreated-control; type: functional
Erysiphe necator [34] = experiment: Antifungal activity against Erysiphe necator biotype B assessed as AUDPC at 0.625 g a.i./l applied 48 hr post-inoculation measured after 14 days by leaf-disk method (reference value: 394); type: functional
Erysiphe necator [35] = experiment: Antifungal activity against Erysiphe necator biotype B assessed as number of spores at 0.625 g a.i./l applied 4 days post-inoculation measured after 14 days during cycle 1 by leaf-disk method (reference value: 35.9 x 10^3 cm'-2); type: functional
Erysiphe necator [36] = experiment: Antifungal activity against Erysiphe necator biotype B assessed as disease severity at 0.625 g a.i./l applied 4 days post-inoculation measured after 14 days during cycle 1 by leaf-disk method relative to untreated-control; type: functional
Erysiphe necator [37] = experiment: Antifungal activity against Erysiphe necator biotype B assessed as AUDPC at 0.625 g a.i./l applied 13 days post-inoculation measured after 14 days during cycle 2 by leaf-disk method (reference value: 654); type: functional
Erysiphe necator [38] = experiment: Antifungal activity against Erysiphe necator biotype B assessed as disease severity at 0.625 g a.i./l applied 48 hr post-inoculation measured after 14 days by leaf-disk method relative to untreated-control; type: functional
Erysiphe necator [39] = experiment: Antifungal activity against Erysiphe necator biotype B assessed as number of spores at 0.625 g a.i./l applied 4 days post-inoculation measured after 14 days during cycle 2 by leaf-disk method (reference value: 44.4 x 10^3 cm'-2); type: functional
Erysiphe necator [40] = experiment: Antifungal activity against Erysiphe necator biotype B assessed as number of spores at 0.625 g a.i./l applied 13 days post-inoculation measured after 14 days during cycle 2 by leaf-disk method (reference value: 47.6 x 10^3 cm'-2); type: functional
Erysiphe necator [41] = experiment: Antifungal activity against Erysiphe necator biotype B assessed as AUDPC at 0.625 g a.i./l applied 4 days post-inoculation measured after 14 days during cycle 1 by leaf-disk method (reference value: 695.6); type: functional
Erysiphe necator [42] = experiment: Antifungal activity against Erysiphe necator biotype B assessed as disease severity at 0.625 g a.i./l applied 48 hr post-inoculation measured after 7 days by leaf-disk method relative to untreated-control; type: functional
Erysiphe necator [43] = experiment: Antifungal activity against Erysiphe necator biotype B assessed as disease severity at 0.625 g a.i./l applied 4 days post-inoculation measured immediately during cycle 1 by leaf-disk method relative to untreated-control; type: functional
Erysiphe necator [44] = experiment: Antifungal activity against Erysiphe necator biotype B assessed as AUDPC at 0.625 g a.i./l applied 4 days post-inoculation measured after 14 days during cycle 2 by leaf-disk method (reference value: 844); type: functional
Erysiphe necator [45] = experiment: Antifungal activity against Erysiphe necator biotype B assessed as number of spores at 0.625 g a.i./l applied 48 hr post-inoculation measured after 14 days by leaf-disk method (reference value: 43.5 x 10^3 cm'-2); type: functional

## CC(C)(C)C(O)(CCc1ccc(Cl)cc1)Cn1cncn1 (stereo not given) [TEBUCONAZOLE]
Erysiphe necator [1]
  Activity: 0.2 ×10³ /cm2
Erysiphe necator [2]
  AUDPC: 56.6
Erysiphe necator [3]
  Activity: 0%
Erysiphe necator [4]
  Activity: 30.4 ×10³ /cm2
Erysiphe necator [5]
  Activity: 0.02 ×10³ /cm2
Erysiphe necator [6]
  AUDPC: 0
Erysiphe necator [7]
  AUDPC: 0
Erysiphe necator [8]
  Activity: 0%
Erysiphe necator [9]
  inhibition: Active
Erysiphe necator [10]
  AUDPC: 612
Erysiphe necator [11]
  Activity: inactive
Erysiphe necator [12]
  inhibition: Active
Erysiphe necator [13]
  Activity: 95%
Erysiphe necator [14]
  Activity: 50%
Erysiphe necator [15]
  Activity: 0.8 ×10³ /cm2
Erysiphe necator [16]
  Activity: 25%

## Fc1ccc(Oc2ccnc3cc(Cl)cc(Cl)c23)cc1 [QUINOXYFEN]
Erysiphe necator [17]
  Activity: 60%
Erysiphe necator [18]
  AUDPC: 361
Erysiphe necator [19]
  Activity: inactive
Erysiphe necator [20]
  Activity: inactive
Erysiphe necator [21]
  Activity: Active
Erysiphe necator [22]
  Activity: inactive
Erysiphe necator [23]
  AUDPC: 6373
Erysiphe necator [24]
  Activity: 24%
Erysiphe necator [25]
  AUDPC: 354
Erysiphe necator [26]
  Activity: 23.2 ×10³ /cm2
Erysiphe necator [27]
  AUDPC: 442
Erysiphe necator [28]
  Activity: Active
Erysiphe necator [29]
  Activity: 10.7 ×10³ /cm2
Erysiphe necator [30]
  Activity: 5%
Erysiphe necator [31]
  Activity: 27.3 ×10³ /cm2
Erysiphe necator [32]
  Activity: 36.9 ×10³ /cm2
Erysiphe necator [33]
  Activity: 89%

## CO/N=C(\C(=O)OC)c1ccccc1CO/N=C(\C)c1cccc(C(F)(F)F)c1
Erysiphe necator [34]
  AUDPC: 86
Erysiphe necator [35]
  Activity: 0.2 ×10³ /cm2
Erysiphe necator [36]
  Activity: 60%
Erysiphe necator [37]
  AUDPC: 6
Erysiphe necator [38]
  Activity: 31.8%
Erysiphe necator [39]
  Activity: 0.06 ×10³ /cm2
Erysiphe necator [40]
  Activity: 1 ×10³ /cm2
Erysiphe necator [41]
  AUDPC: 459
Erysiphe necator [42]
  Activity: 3%
Erysiphe necator [43]
  Activity: 24%
Erysiphe necator [44]
  AUDPC: 0
Erysiphe necator [45]
  Activity: 2.1 ×10³ /cm2
